Laboratory results taken from paper PMC3479967 (Evidence-based Complementary and Alternative Medicine : eCAM, 2012).

How the values were obtained:
[1] = target: T1, UGT1A9 (Homo sapiens, UniProt O60656); test: Inhibition of recombinant UGT1A9 activity (4-MU glucuronidation)
T1 sequence (O60656 26-530): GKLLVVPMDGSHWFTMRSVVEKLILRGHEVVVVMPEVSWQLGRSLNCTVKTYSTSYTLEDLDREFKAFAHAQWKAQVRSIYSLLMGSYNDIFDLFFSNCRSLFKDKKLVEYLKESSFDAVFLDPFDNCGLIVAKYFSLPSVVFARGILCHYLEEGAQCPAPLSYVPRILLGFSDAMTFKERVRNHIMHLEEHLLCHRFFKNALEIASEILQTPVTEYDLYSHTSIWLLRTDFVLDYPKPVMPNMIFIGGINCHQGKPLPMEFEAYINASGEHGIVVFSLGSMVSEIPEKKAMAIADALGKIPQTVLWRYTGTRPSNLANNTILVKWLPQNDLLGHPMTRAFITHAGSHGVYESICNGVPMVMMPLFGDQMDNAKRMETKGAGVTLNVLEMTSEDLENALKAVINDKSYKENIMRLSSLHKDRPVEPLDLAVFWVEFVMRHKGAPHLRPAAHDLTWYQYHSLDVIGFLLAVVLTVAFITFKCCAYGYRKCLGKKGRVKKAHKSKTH
Experimental: (§1) A panel of recombinant human UGT supersomes (UGT1A1, UGT1A3, UGT1A4, UGT1A6, UGT1A7, UGT1A8, UGT1A9, UGT1A10, UGT2B4, UGT2B7, UGT2B15, and UGT2B17) expressed in baculovirus-infected insect cells were purchased from BD Gentest Corp. (Woburn, MA, USA).
(§2) 4-MU, a nonselective substrate of UGTs, was used as probe substrate for all UGTs except UGT1A4. Incubations with each individual enzyme were conducted using conditions previously described. There was a 5 min preincubation step at 37°C before the reaction was started by addition of UDPGA. The incubation mixtures were then centrifuged at 20,500 ×g for 15 min to obtain the supernatant. Aliquots (20 μL) were then analyzed by HPLC. The HPLC system (SHIMADZU, Kyoto, Japan) consisted of an SCL-10A system controller, two LC-10AT pumps, a SIL-10A auto injector, and a SPD-10AVP UV detector. Chromatographic separation was achieved using a Kromasil ODS column (4.6 × 150 mm I.D., 5 μm particle size) at a flow rate of 1 mL/min and UV detection at 316 nm. The mobile phase consisted of 10 mM KH2PO4, pH 2.7 (A) and acetonitrile (B). The following gradient was applied at a flow rate of 1 mL/min: 0–4 min 80% A and 20% B, 4.1–8 min 50% A and 50% B, 8.1–12 min, 30% A and 70% B. All experiments were performed in two independent experiments in duplicate.
A typical incubation mixture contained recombinant human UGTs, 5 mM MgCl2, 5 mM UDPGA, 50 μg/mg protein alamethicin, 50 mM Tris-HCl buffer (pH 7.4), and various probe substrates of UGTs in the absence or presence of different concentrations of inhibitors. […] The final concentration of DMSO in the incubation system was 1% (v/v). […]
(§3) Inhibition data from experiments were graphically represented by Dixon plots. K i values were calculated by nonlinear regression using the equations for competitive inhibition (1), noncompetitive inhibition (2), or mixed inhibition (3), [22] […] The type of inhibition was determined from the enzyme inhibition models. Goodness of fit to kinetic and inhibition models was assessed from the F statistic, r ^2 values, parameter standard error estimates, and 95% confidence intervals. […]

[2] = target: T2, UGT2B7 (Homo sapiens, UniProt P16662); test: Inhibition of recombinant UGT2B7 activity (4-MU glucuronidation)
T2 sequence (P16662 24-529): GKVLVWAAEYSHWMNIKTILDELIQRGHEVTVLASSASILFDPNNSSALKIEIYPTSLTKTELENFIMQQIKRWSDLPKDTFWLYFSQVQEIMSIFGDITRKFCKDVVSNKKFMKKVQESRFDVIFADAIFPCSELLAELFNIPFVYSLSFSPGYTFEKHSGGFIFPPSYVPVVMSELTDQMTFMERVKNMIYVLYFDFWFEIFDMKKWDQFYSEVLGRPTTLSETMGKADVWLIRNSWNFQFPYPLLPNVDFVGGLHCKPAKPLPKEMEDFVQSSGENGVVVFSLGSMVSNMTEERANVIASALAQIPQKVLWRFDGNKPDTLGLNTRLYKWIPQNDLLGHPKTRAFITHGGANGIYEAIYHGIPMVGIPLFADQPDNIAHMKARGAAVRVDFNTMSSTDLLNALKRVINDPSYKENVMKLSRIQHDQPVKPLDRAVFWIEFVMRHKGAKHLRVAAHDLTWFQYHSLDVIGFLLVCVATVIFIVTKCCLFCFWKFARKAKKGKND
Experimental: as §1, §2
A typical incubation mixture contained recombinant human UGTs, 5 mM MgCl2, 5 mM UDPGA, 50 μg/mg protein alamethicin, 50 mM Tris-HCl buffer (pH 7.4), and various probe substrates of UGTs in the absence or presence of different concentrations of inhibitors. […] The final concentration of DMSO in the incubation system was 1% (v/v). […] Known UGT inhibitors were used as positive controls: diclofenac for UGT1A1, UGT1A6, UGT1A7, and UGT1A9; androsterone for UGT1A3, UGT2B7, and UGT2B15, phenylbutazone for UGT1A8 and UGT1A10, and hecogenin for UGT1A4, respectively. There is no positive control reported available for UGT2B4 and UGT2B17. The negative controls are the incubation without UDPGA. […] The final concentration of DMSO in the incubation system was 1% (v/v). […] There was a 5 min preincubation step at 37°C before the reaction was started by the addition of UDPGA. Incubation times were 120 min for UGT1A1, UGT1A10, UGT2B4, UGT2B15, and UGT2B17, 75 min for UGT1A3, and 30 min for UGT1A4, UGT1A6, UGT1A7, UGT1A8, and UGT1A9. The reactions were quenched by adding 100 μL acetonitrile and internal standard. The incubation mixtures were then centrifuged at 20,500 ×g for 15 min to obtain the supernatant. An aliquot of the supernatant was used for HPLC analysis as described above. All experiments were performed in two independent experiments in duplicate.
as §3

IC50 [1] [µM]	IC50 [2] [µM]	SMILES
1.5 ± 0.1	> 100	COc1ccc(-c2oc3c(CC=C(C)C)c(O)cc(O)c3c(=O)c2O)cc1 [Icaritin]
> 100	> 100	COc1ccc(-c2oc3c(CC=C(C)C)c(O[C@@H]4O[C@H](CO)[C@@H](O)[C@H](O)[C@H]4O)cc(O)c3c(=O)c2O)cc1 [Icariside I]

SMILES	IC50 [1] [µM]	IC50 [2] [µM]
COc1ccc(-c2oc3c(CC=C(C)C)c(O[C@@H]4O[C@H](CO)[C@@H](O)[C@H](O)[C@H]4O)cc(O)c3c(=O)c2O[C@@H]2O[C@@H](C)[C@H](O)[C@@H](O)[C@H]2O)cc1 [Icariin]	> 100	> 100
